For 32 compounds, IC50 results are on record in patent publication US20060223996A1, “IL-12 modulatory compounds” (Synta Pharmaceuticals Corp., priority 2004, published 2006).

The assay deals with IL-12. Kind of assay: Human in vitro assay: inhibition of IL-12 production in IFNγ/LPS- or IFNγ/SAC-stimulated human PBMC or THP-1 cells (ELISA). The assay is classed as cell-based. The settings on record: read-out: IC50 Range (representative in vitro IC50 data). The method, boiled down:
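PBMC (5×10^5 cells/well) primed with IFNγ 30 U/mL for 22 h then LPS 1 μg/mL, or IFNγ 100 U/mL then SAC 0.01%; THP-1 primed with IFNγ 100 U/mL for 22 h then SAC 0.025%, with compound in 0.25% DMSO. Supernatant IL-12 p70/p40 measured by sandwich ELISA after 18 h; IC50 derived; viability by MTS.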
Consider `CC(=O)N1CCN(C(=O)CNc2cc(C(=O)Nc3ccc4[nH]c(C)c(C)c4c3)nc(N3CCOCC3)n2)CC1` [Compound 102, 6-[2-(4-Acetyl-piperazin-1-yl)-2-oxo-ethylamino]-2-morpholin-4-yl-pyrimidine-4-carboxylic acid (2,3-dimethyl-1H-indol-5-yl)-amide], for which the half-inhibitory concentration (IC50) is less than 1 µM. To `CCN(C)c1cccc(NC(=O)c2cc(OCCN3CCOCC3)nc(N3CCOCC3)n2)c1` [Compound 312, 2-Morpholin-4-yl-6-(2-morpholin-4-yl-ethoxy)-pyrimidine-4-carboxylic acid [3-(ethyl-methyl-amino)-phenyl]-amide] belongs less than 1 µM; to `Cc1[nH]c2ccc(NC(=O)c3cc(OCC(C)(C)O)nc(N4CCOCC4)n3)cc2c1C` [Compound 314, 6-(2-Hydroxy-2-methyl-propoxy)-2-morpholin-4-yl-pyrimidine-4-carboxylic acid (2,3-dimethyl-1H-indol-5-yl)-amide], less than 1 µM; to `O=C(Nc1cccc(Cl)c1)c1cc(OCCN2CCOCC2)nc(N2CCOCC2)n1` [Compound 287, 2-Morpholin-4-yl-6-(2-morpholin-4-yl-ethoxy)-pyrimidine-4-carboxylic acid (3-chloro-phenyl)-amide], no less than 1 µM. Regarding `COCCN(C)c1cc(C(=O)Nc2cc(-c3ccc(Cl)cc3)nn2C)nc(N2CCOCC2)n1` [Compound 227, 6-[(2-Methoxy-ethyl)-methyl-amino]-2-morpholin-4-yl-pyrimidine-4-carboxylic acid [5-(4-chloro-phenyl)-2-methyl-2H-pyrazol-3-yl]-amide], the IC50 is no less than 1 µM.

Take `NC(=O)c1ccc(NC(=O)c2cc(OCCN3CCOCC3)nc(N3CCOCC3)n2)nc1` [Compound 150, 2-Morpholin-4-yl-6-(2-morpholin-4-yl-ethoxy)-pyrimidine-4-carboxylic acid (5-carbamoyl-pyridin-2-yl)-amide]: the IC50 was less than 1 µM. To `Cc1ccc(NC(=S)Nc2cc(N3CCOCC3)nc(OCCN3CCOCC3)n2)cc1` [Compound 12, 1-[6-Morpholin-4-yl-2-(2-morpholin-4-yl-ethoxy)-pyrimidin-4-yl]-3-p-tolyl-thiourea] belongs no less than 1 µM; to `CCN(CC)Cc1cc(NC(=O)c2cc(N(C)CCOC)nc(N3CCOCC3)n2)ccc1O` [Compound 164, 6-[(2-Methoxy-ethyl)-methyl-amino]-2-morpholin-4-yl-pyrimidine-4-carboxylic acid (3-diethylaminomethyl-4-hydroxy-phenyl)-amide], no less than 1 µM.

In the case of `Cc1ccc(NNC(=O)c2cc(N3CCOCC3)nc(OCCN3CCOCC3)n2)cc1C` [Compound 81, 6-Morpholin-4-yl-2-(2-morpholin-4-yl-ethoxy)-pyrimidine-4-carboxylic acid N′-(3,4-dimethyl-phenyl)-hydrazide], the IC50 was less than 1 µM. For `O=C(Nc1cc(-c2cccs2)[nH]n1)c1cc(OCCN2CCOCC2)nc(N2CCOCC2)n1` [Compound 45, 2-Morpholin-4-yl-6-(2-morpholin-4-yl-ethoxy)-pyrimidine-4-carboxylic acid (5-thiophen-2-yl-1H-pyrazol-3-yl)-amide] the value was no less than 1 µM; for `Cc1[nH]c2ccc(NC(=O)c3cc(NCC(=O)N4CCN(C)CC4)nc(N4CCOCC4)n3)cc2c1C` [Compound 106, 6-[2-(4-Methyl-piperazin-1-yl)-2-oxo-ethylamino]-2-morpholin-4-yl-pyrimidine-4-carboxylic acid (2,3-dimethyl-1H-indol-5-yl)-amide], less than 1 µM. For `CCc1c(C)[nH]c2ccc(NC(=O)c3cc(OCCN4CCOC4=O)nc(N4CCOCC4)n3)cc12` [Compound 222, 2-Morpholin-4-yl-6-[2-(2-oxo-oxazolidin-3-yl)-ethoxy]-pyrimidine-4-carboxylic acid (3-ethyl-2-methyl-1H-indol-5-yl)-amide] the value was less than 1 µM. In the case of `Cc1[nH]c2ccc(NC(=O)c3cc(Nc4ccc5[nH]c(C)c(C)c5c4)nc(N4CCOCC4)n3)cc2c1C` [Compound 255, N-(2,3-dimethyl-1H-indol-5-yl)-6-(2,3-dimethyl-1H-indol-5-ylamino)-2-morpholinopyrimidine-4-carboxamide], the IC50 was less than 1 µM.

In the case of `Cc1c(C)n(O)c2ccc(NC(=O)c3cc(OCCN4CCOCC4)nc(N4CCOCC4)n3)cc12` [Compound 320, 2-Morpholin-4-yl-6-(2-morpholin-4-yl-ethoxy)-pyrimidine-4-carboxylic acid (1-hydroxy-2,3-dimethyl-1H-indol-5-yl)-amide], the IC50 was less than 1 µM. Consider `COCCN(C)c1cc(N2CCOCC2)cc(C(=O)Nc2ccc3[nH]c(C)c(C)c3c2)n1` [Compound 156, 6-[(2-Methoxy-ethyl)-methyl-amino]-4-morpholin-4-yl-pyridine-2-carboxylic acid (2,3-dimethyl-1H-indol-5-yl)-amide], for which the IC50 was less than 1 µM. For `Cc1c(C)n(C)c2ccc(N(C)C(=O)c3cc(OCCN4CCOCC4)nc(N4CCOCC4)n3)cc12` [Compound 31, 2-Morpholin-4-yl-6-(2-morpholin-4-yl-ethoxy)-pyrimidine-4-carboxylic acid methyl-(1,2,3-trimethyl-1H-indol-5-yl)-amide] the value was no less than 1 µM. For `COCCN(C)c1cc(N2CCOCC2)cc(C(=O)Nc2cccc(N(C)C)c2)n1` [Compound 157, 6-[(2-Methoxy-ethyl)-methyl-amino]-4-morpholin-4-yl-pyridine-2-carboxylic acid (3-dimethylamino-phenyl)-amide] the value was no less than 1 µM; for `CO/N=C(\C)c1cccc(NC(=O)c2cc(OCCN3CCOCC3)nc(N3CCOCC3)n2)c1` [Compound 154, (E)-N-(3-(1-(methoxyimino)ethyl)phenyl)-2-morpholino-6-(2-morpholinoethoxy)pyrimidine-4-carboxamide], less than 1 µM; for `Cc1[nH]c2ccc(NC(=O)c3cc(NCC(=O)N4CCC(O)CC4)nc(N4CCOCC4)n3)cc2c1C` [Compound 100, 6-[2-(4-Hydroxy-piperidin-1-yl)-2-oxo-ethylamino]-2-morpholin-4-yl-pyrimidine-4-carboxylic acid (2,3-dimethyl-1H-indol-5-yl)-amide], less than 1 µM.

For `CN(C)c1cccc(NC(=O)c2cc(OCCN3CCOCC3)nc(N3CCOCC3)n2)c1` [Compound 26, 2-Morpholin-4-yl-6-(2-morpholin-4-yl-ethoxy)-pyrimidine-4-carboxylic acid (3-dimethylamino-phenyl)-amide], the IC50 was less than 1 µM.

`O=C(Nc1ccc(O)cc1)Nc1cc(OCCN2CCOCC2)nc(N2CCOCC2)n1` [Compound 143, 1-(4-Hydroxy-phenyl)-3-[2-morpholin-4-yl-6-(2-morpholin-4-yl-ethoxy)-pyrimidin-4-yl]-urea]: the IC50 was less than 1 µM. To `Cc1cccc(NNC(=O)c2cc(OCCc3ccccn3)nc(N3CCOCC3)n2)c1` [Compound 79, 2-Morpholin-4-yl-6-(2-pyridin-2-yl-ethoxy)-pyrimidine-4-carboxylic acid N′-m-tolyl-hydrazide] belongs no less than 1 µM; to `Cc1cc(C(=O)Nc2ccc3c(c2)c(C)c(C)n3O)nc(N2CCOCC2)n1` [Compound 319, 6-Methyl-2-morpholin-4-yl-pyrimidine-4-carboxylic acid (1-hydroxy-2,3-dimethyl-1H-indol-5-yl)-amide], less than 1 µM; to `Cc1ccc2nc(NC(=O)c3cc(OCCc4ccccn4)nc(N4CCOCC4)n3)sc2c1` [Compound 32, 2-Morpholin-4-yl-6-(2-pyridin-2-yl-ethoxy)-pyrimidine-4-carboxylic acid (6-methyl-benzothiazol-2-yl)-amide], no less than 1 µM. For `COCCN(C)c1cc(C(=O)Nc2ccc3c(C(F)(F)F)cc(C(F)(F)F)nc3n2)nc(N2CCOCC2)n1` [Compound 243, 6-[(2-Methoxy-ethyl)-methyl-amino]-2-morpholin-4-yl-pyrimidine-4-carboxylic acid (5,7-bis-trifluoromethyl-[1,8]naphthyridin-2-yl)-amide] the value was no less than 1 µM. On to `Cc1ccc(NC(=O)c2cc(N3CCOCC3)nc(N3CCOCC3)n2)cc1C` [Compound 51, 2,6-Di-morpholin-4-yl-pyrimidine-4-carboxylic acid (3,4-dimethyl-phenyl)-amide], for which the IC50 was less than 1 µM. For `Cc1cccc(NC(=O)c2cc(OCCc3ccccn3)nc(N3CCOCC3)n2)c1` [Compound 5, 2-Morpholin-4-yl-6-(2-pyridin-2-yl-ethoxy)-pyrimidine-4-carboxylic acid m-tolylamide] the value was less than 1 µM. For `COCCN(CCOC)c1cc(C(=O)Nc2ccc3[nH]c(C)c(C)c3c2)nc(N2CCOCC2)n1` [Compound 258, 6-(bis(2-methoxyethyl)amino)-N-(2,3-dimethyl-1H-indol-5-yl)-2-morpholinopyrimidine-4-carboxamide] the value was less than 1 µM. For the compound `O=C(Nc1cccc(C(F)(F)F)c1)Nc1cc(N2CCOCC2)nc(OCCN2CCOCC2)n1` [Compound 121, 1-[6-Morpholin-4-yl-2-(2-morpholin-4-yl-ethoxy)-pyrimidin-4-yl]-3-(3-trifluoromethyl-phenyl)-urea], the IC50 was less than 1 µM.

`N#Cc1cccc(NC(=O)Nc2cc(OCCN3CCOCC3)nc(N3CCOCC3)n2)c1` [Compound 127, 1-(3-Cyano-phenyl)-3-[2-morpholin-4-yl-6-(2-morpholin-4-yl-ethoxy)-pyrimidin-4-yl]-urea]: the IC50 is less than 1 µM. As for `Cc1[nH]c2ccc(NCc3cc(OCCc4ccccn4)nc(N4CCOCC4)n3)cc2c1C` [Compound 84, (2,3-Dimethyl-1H-indol-5-yl)-[2-morpholin-4-yl-6-(2-pyridin-2-yl-ethoxy)-pyrimidin-4-ylmethyl]-amine], the IC50 was less than 1 µM. To `O=C(Nc1cccc(-n2cccn2)c1)Nc1cc(OCCN2CCOCC2)nc(N2CCOCC2)n1` [Compound 327, 1-[2-Morpholin-4-yl-6-(2-morpholin-4-yl-ethoxy)-pyrimidin-4-yl]-3-(3-pyrazol-1-yl-phenyl)-urea] belongs no less than 1 µM.
